The record followed here is PubChem BioAssay (NCI).

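1) Cells in 96-well plates. 2) Compound, 48 h, 5 concentrations. 3) Linear interpolation between surrounding doses. 4) Unreached endpoint = highest concentration. GI50 = concentration required for 50% inhibition of growth. Definition used: TGI = concentration required for complete inhibition of growth.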 Where only a bound is given, the exact number is not on record here.

The subject of the test is P388 leukemia. In words: NCI tumour cell line growth inhibition, 48 h.

Regarding `CCc1ccc([O-])c(C=NCCCN(C)CCCN=Cc2cc(C)ccc2[O-])c1.[Co+3].[N-]=[N+]=[N-]`, the GI50 was 145 µg/mL and the TGI is > 150 µg/mL.
